Measurements: US20210093637A1, “TOPICAL OINTMENT FORMULATIONS OF PDE-4 INHIBITOR AND THEIR USE IN TREATING SKIN CONDITIONS” (Dermavant Sciences GmbH, priority 2017, published 2021)
Where “and” joins values, the source holds several entries; their conditions need not be identical. Identical values can stand only once. Entries after “also recorded” stand apart in the source; their conditions may differ.

What was measured:
Assay type in all cases: in vivo, human
[1] = Phase 2 study in pediatric patients (Example 6), plasma concentrations of RVT-501 and M11 at Week 1; settings: for Plasma concentration, Mean (SD) / Plasma concentration, Median / Plasma concentration, Min / Plasma concentration, max / N with concentrations above LLQ (plasma): Week 1 pre-dose, subjects aged 2 to 11 years, twice daily application of RVT-501 0.5%; for N with concentrations above LLQ (plasma): N 16, LLQ 0.25 ng/mL
Protocol: Pharmacokinetic Endpoint: PK analysis for RVT-501 and M11 metabolite at the Week 1 visit in subjects 2 to 11 years old.
Pharmacokinetic Analyses: RVT-501 and M11 were measured in plasma by a validated assay. Plasma concentrations were summarized as continuous variables.
Pharmacokinetic Concentration Results: A single blood sample was collected pre-dose in subjects aged 2 to 11 years old at Week 1 to assess the concentration of RVT-501 and the M11 metabolite in plasma.

[2] = Clinical application of DBS assay: blood levels in pediatric trial of E6005 ointment; settings: pediatric subjects; E6005 ointment 0.05% or 0.2% twice a day for two weeks; 147 DBS samples
Protocol: Clinical application: A clinical study was performed in which E6005 ointment containing 0.05% or 0.2% was topically applied twice a day for two weeks to pediatric subjects. Blood samples were obtained at 1- and 2-week post-dose as well as subsequent 7-day follow-up period in collection tubes with K2-EDTA as an anticoagulant, thereafter put on ice as soon as possible to reduce possible conversion of E6005 to M11. Details on sample handling at the clinics were clarified in a lab manual; a 25 μL aliquot blood sample was spotted onto the center of circle of DBS cards (four replicates per sample) at clinics, then dried at room temperature for at least 2 h. DBS cards with desiccants were placed in zip lock bags and stored frozen below −20° C. until shipment to a bioanalytical laboratory. Samples were stored below −15° C. at the laboratory until they were subjected to sample processing for the determination of E6005 and M11 concentrations in DBS.

[3] = Phase 2 study RVT-501-2001, plasma concentrations of RVT-501 and M11
Excerpt: During the treatment period, subjects applied RVT-501 ointment or vehicle to affected areas twice daily (BID) for 28 days. Subjects returned to the clinic at Day 4 for evaluation, and again at Weeks 1, 2, 3, and 4 for safety and efficacy assessments. Pharmacokinetic samples were collected at Weeks 1 and 4. On clinic visit days (except on the Day 4 visit), subjects applied study drug on-site while under the supervision of site personnel, after efficacy assessments had been completed.
Statistical Methods: Efficacy Analyses: A sample size and power sensitivity analysis was conducted for the efficacy endpoints. Assuming an effect size (defined as difference of mean change from baseline EASI score between treatment groups relative to pooled standard deviation) of 0.7, a sample size of 50 subjects in an active arm and 50 subjects in the combined placebo will provide 93% power at an alpha level of 0.05 (2-sided), based on a 2-sided t-test. The sample size will also allow a difference of 33% between placebo and active treatment in a responder endpoint to be detected with 90% power and a 0.05 significance level assuming the proportion of responders in the placebo group is <=20%. Efficacy endpoints will be summarized and listed by treatment for each age group and both age groups combined; The between-treatment comparisons (active vs placebo and between active dose groups) for continuous efficacy variables will be performed using an analysis of covariance (ANCOVA) model. The between treatment comparisons for the proportion of responders will be compared using a CMH or Chi-square test. Safety Analyses: Adverse events will be mapped to a Medical Dictionary for Regulatory Activities (MedDRA). Treatment emergent adverse events will be summarized by treatment, preferred term and system organ classification. Descriptive summaries of vital signs, ECG parameters, and clinical laboratory results will be presented by study visit and treatment group. Pharmacokinetic Analyses: RVT-501 and M11 plasma concentrations will be listed by subject, treatment, and time; and will be summarized by treatment and time. The number and percent of subjects with a measurable concentration of either analyte at each time point and any time during the study will be provided.
Analysis Populations: Four analysis populations were used for this study. The Safety population, consisting of all subjects enrolled into the study who received study drug, was used for the safety analyses. The intent-to-treat (ITT) population, defined as all subjects randomized to treatment, was the primary population used for the efficacy analyses. The per protocol (PP) population included subjects who applied at least 50% of the doses. The PP population was used for confirmatory analysis of the efficacy variables. The PK population included all subjects who underwent plasma PK sampling and had at least one evaluable PK sample (a concentration reported as below the lower limit of quantitation (LLQ) of the assay was considered an evaluable PK sample).
Pharmacokinetics: Blood samples for PK analysis of RVT-501 and the M11 metabolite will be collected at the time points indicated in Table 1. The actual date and time of each blood sample collection will be recorded as well as the date and time of the last dose of study mediation. The timing of PK samples may be altered and/or PK samples may be obtained at additional time points to ensure thorough PK monitoring.
Pharmacokinetics summary: PK samples were collected pre-dose at Weeks 1 and 4, and 2-4 hrs post-dose at Week 4. […] Three patients had detectable M11 exposure with the highest value at 1.60 ng/mL.

[4] = Week 1, RVT-501 0.5% twice daily, person two

Row | highest plasma M11 concentration (Subject 05002) ([1]; Week 1, RVT-501 0.5% twice daily) | measurable plasma concentrations of the M11 metabolite (eight subjects out of 16) ([1]; Week 1, ages 2-11 years) | Plasma concentration, Mean (SD) [1] | Plasma concentration, Median [1] | Plasma concentration, Min [1] | Plasma concentration, max [1] | N with concentrations above LLQ (plasma) [1] | maximum level in blood (DBS) [2] | plasma M11 concentration, Subject 18014 (adolescent) ([3]; RVT-501 0.2% group, Week 1 pre-dose) | plasma M11 concentration, Subject 03005 (adult) ([3]; RVT-501 0.5% group, Week 1 pre-dose) | plasma M11 concentration, Subject 09003 (adult) ([3]; RVT-501 0.5% group, Week 4 pre-dose) | highest plasma concentration of M11 metabolite ([3]; all groups, Weeks 1 and 4) | plasma RVT-501 concentration, Subject 03001 ([1]; Week 1, RVT-501 0.5% twice daily, person one) | plasma RVT-501 concentration, Subject 05002 [1, 4] | highest plasma concentration of RVT-501 ([3]; RVT-501 0.2% group, Week 4) | plasma RVT-501 concentration, Subject 18014 (adolescent) ([3]; RVT-501 0.2% group, Week 4, 2 hours post-dose) | plasma RVT-501 concentration, Subject 18014 (adolescent) ([3]; RVT-501 0.2% group, Week 4 pre-dose) | plasma concentration of RVT-501 ([3]; Week 1 pre-dose, all treatment groups, LLQ) | systemic absorption ([3]; topical 0.2% and 0.5% BID) | Structure (SMILES) | plasma RVT-501 concentration, Subject 21001 [1, 4]
1 | 16.90 ng/mL | near the lower limit of quantitation | 1.50 (4.194) ng/mL | 0.19 ng/mL | 0 ng/mL | 16.90 ng/mL | 8 | below the LLOQ | 1.27 ng/mL | 1.60 ng/mL | 1.09 ng/mL | 1.60 ng/mL |  |  |  |  |  |  |  | CNc1nc(-c2cccc(NC(=O)c3ccc(C(=O)O)cc3)c2)c2cc(OC)c(OC)cc2n1 [Formulation M11, 4-((3-(6,7-dimethoxy-2-(methylamino)quinazolin-4-yl)phenyl)carbamoyl)benzoic acid] | 
2 |  |  | 31.69 (88.531) ng/mL | 0 ng/mL | 0 ng/mL | 306.00 ng/mL | 3 | 1.65 ng/mL |  |  |  |  | 1.07 ng/mL | 306 ng/mL and 306.00 ng/mL | 1.23 ng/mL | 1.20 ng/mL | 1.23 ng/mL | < 1.00 ng/mL | minimal to no systemic absorption | CNc1nc(-c2cccc(NC(=O)c3ccc(C(=O)OC)cc3)c2)c2cc(OC)c(OC)cc2n1 [RVT-501, methyl N-[3-(6,7-dimethoxy-2-methylaminoquinazolin-4-yl)phenyl]terephthalamic acid] | above the upper limit of quantification; also recorded: above upper limit of quantitation
